Data reported in patent US20030129629A1, “Methods and compositions for the identification, assessment, prevention, and therapy of human cancers” (Millennium Pharmaceuticals, Inc., priority 2000, published 2003).
Where “and” joins values, the source holds several entries; their conditions need not be identical. Equal values may be shown once. Read-outs that look alike come from different tables or passages of the source.

Tested on: 60 cancer cell lines (NCI 60 cancer cell line series)
Experiment: NCI-DTP in vitro cancer screen, sulforhodamine B (SRB) growth inhibition, 48 hour exposure
Type: cell-based, human
Method: Cancer Cell Line Preparation. Sixty cancer cell lines were obtained from the National Cancer Institute Developmental Therapeutics Program (NCI-DTP). Procedures for growing cells and testing compounds have been described previously (Scudiero et al., Cancer Res. 1988, 48:4827-4833; Stinson et al., Anticancer Res.; Myers et al., Electrophoresis 1997, 18:647-653). Cells are plated on day 0 at a density individualized for each cell line so that they will generally be sub-confluent at the end of the assay period. On day 1, a compound is added in the format for a duplicate-well, 5-dose, ten-fold interval dose response study.
No-drug, no-cell and no-growth controls are included. On day 3 the cells are processed for staining with sulforhodamine B (SRB), which reflects the amount of cell mass present at the end of a 48 hour exposure to the test agent. From dose response curves based on the SRB data, various parameters can be determined. […] More precisely, the quantity used in the calculation to be described is the potency measure −log{GI50}.
Activity database (A). […] This subset of compounds was selected from the larger 23,000 compound database available from the DTP. The compounds were selected on the basis of their known mechanism of action and chemical structure. The average potency −log{GI50} was extracted from the comma-delimited text files available through the Web at http://www.nci.nih.gov/intra/lmp/jnwbio.html. Subsequently, these −log{GI50} values were inspected manually and classified as indicating either Low, Medium or High sensitivity to each compound.

For `O=NN(CCCl)C(=O)NCCCl` [BCNU], which “sensitivity classification Low(1)/Medium(2)/High(3)” value is on record?
Its value is 2 and 1 and 3.

For `CS(=O)(=O)OCCCCOS(C)(=O)=O` [Busulfan], which “classification of cell line as Low(1), Medium(2), High(3) sensitivity to compound” value (“classification of cell line” for short) (Breast BT-549 CL5013) is on record?
The value was 1.

What about the “classification of cell line” value (Breast HS-578T CL5006) of the same molecule?
The value was 1.

What about the “classification of cell line” value (Breast MCF7(I) CL5001) of the same molecule?
Its value is 2.

What about the “classification of cell line” value (Breast MCF7/ADRr CL5002) of the same molecule?
The value was 2.

What about the “classification of cell line” value (Breast MDA-MB-231 CL5005) of the same molecule?
The value was 1.

What about the “classification of cell line” value (Breast MDA-MB-435 CL5011) of the same molecule?
Its value is 1.

What about the “classification of cell line” value (Breast MDA-N CL5012) of the same molecule?
The value was 2.

And the “classification of cell line” value (Breast T-47D CL5014)?
The value was 1.

What about the “classification of cell line” value (CNS SF-268 CL12014) of the same molecule?
Its value is 2.

What about the “classification of cell line” value (CNS SF-295 CL12015) of the same molecule?
Its value is 2.

And the “classification of cell line” value (CNS SF-539 CL12016)?
Its value is 1.

What about the “classification of cell line” value (CNS SNB-19 CL12002) of the same molecule?
Its value is 2.

And the “classification of cell line” value (CNS SNB-75(I) CL12005)?
Its value is 3.

What about the “classification of cell line” value (CNS U251(I) CL12009) of the same molecule?
The value was 1.

And the “classification of cell line” value (Colon COLO-250 CL4010)?
Its value is 2.

And the “classification of cell line” value (Colon HCC-2998 CL4002)?
The value was 2.

What about the “classification of cell line” value (Colon HCT-15 CL4015) of the same molecule?
Its value is 2.

What about the “classification of cell line” value (Colon HCT-116 CL4003) of the same molecule?
The value was 1.

What about the “classification of cell line” value (Colon HT29(I) CL4001) of the same molecule?
The value was 1.

And the “classification of cell line” value (Colon KM12 CL4017)?
The value was 1.

And the “classification of cell line” value (Colon SW-620 CL4009)?
The value was 2.

And the “classification of cell line” value (Leukemia CCRF-CEM(I) CL7003)?
Its value is 3.

And the “classification of cell line” value (Leukemia HL-60(I) CL7008)?
The value was 3.

What about the “classification of cell line” value (Leukemia K562(I) CL7005) of the same molecule?
The value was 2.

What about the “classification of cell line” value (Leukemia MOLT-4 CL7006) of the same molecule?
Its value is 3.

What about the “classification of cell line” value (Leukemia RPMI-8226(I) CL7010) of the same molecule?
The value was 1.

What about the “classification of cell line” value (Leukemia SR CL7019) of the same molecule?
The value was 3.

What about the “classification of cell line” value (Melanoma LOX IMVI CL10001) of the same molecule?
The value was 2.

And the “classification of cell line” value (Melanoma M14 CL10014)?
The value was 1.

What about the “classification of cell line” value (Melanoma MALME-3M CL10002) of the same molecule?
The value was 1.

What about the “classification of cell line” value (Melanoma SK-MEL-2 CL10005) of the same molecule?
The value was 1.

What about the “classification of cell line” value (Melanoma SK-MEL-5 CL10007) of the same molecule?
Its value is 2.

And the “classification of cell line” value (Melanoma SK-MEL-28 CL10008)?
The value was 2.

What about the “classification of cell line” value (Melanoma UACC-62 CL10020) of the same molecule?
The value was 2.

And the “classification of cell line” value (Melanoma UACC-257 CL10021)?
The value was 2.

What about the “classification of cell line” value (NSCLC A549/ATCC CL1004) of the same molecule?
The value was 2.

And the “classification of cell line” value (NSCLC EKVX CL1008)?
The value was 2.

What about the “classification of cell line” value (NSCLC HOP-62 CL1026) of the same molecule?
The value was 2.

And the “classification of cell line” value (NSCLC HOP-92 CL1029)?
Its value is 2.

What about the “sensitivity classification Low(1)/Medium(2)/High(3)” value (NSCLC NCI-H23(I) CL1001) of the same molecule?
The value was 2.

What about the “classification of cell line” value (NSCLC NCI-H226 CL1013) of the same molecule?
The value was 2.

And the “sensitivity classification Low(1)/Medium(2)/High(3)” value (NSCLC NCI-H332M CL1017)?
The value was 1.

And the “sensitivity classification Low(1)/Medium(2)/High(3)” value (NSCLC NCI-H460 CL1021)?
The value was 3.

What about the “sensitivity classification Low(1)/Medium(2)/High(3)” value (NSCLC NCI-H522 CL1003) of the same molecule?
Its value is 1.

And the “sensitivity classification Low(1)/Medium(2)/High(3)” value (Ovarian IGROV1 CL6010)?
Its value is 1.

What about the “sensitivity classification Low(1)/Medium(2)/High(3)” value (Ovarian OVCAR-3 CL6001) of the same molecule?
Its value is 2.

And the “sensitivity classification Low(1)/Medium(2)/High(3)” value (Ovarian OVCAR-4 CL6002)?
Its value is 2.

And the “sensitivity classification Low(1)/Medium(2)/High(3)” value (Ovarian OVCAR-5 CL6003)?
The value was 1.

What about the “sensitivity classification Low(1)/Medium(2)/High(3)” value (Ovarian OVCAR-8 CL6005) of the same molecule?
Its value is 1.

What about the “sensitivity classification Low(1)/Medium(2)/High(3)” value (Ovarian SK-OV-3 CL6011) of the same molecule?
The value was 1.

And the “sensitivity classification Low(1)/Medium(2)/High(3)” value (Prostate DU-145 CL11003)?
The value was 2.

And the “sensitivity classification Low(1)/Medium(2)/High(3)” value (Prostate PC-3(I) CL11001)?
The value was 1.

What about the “sensitivity classification Low(1)/Medium(2)/High(3)” value (Renal 786-0 CL9018) of the same molecule?
The value was 2.

What about the “sensitivity classification Low(1)/Medium(2)/High(3)” value (Renal A498 CL9013) of the same molecule?
Its value is 1.

And the “sensitivity classification Low(1)/Medium(2)/High(3)” value (Renal ACHN CL9023)?
The value was 2.

What about the “sensitivity classification Low(1)/Medium(2)/High(3)” value (Renal CAKI-1 CL9015) of the same molecule?
Its value is 3.

What about the “sensitivity classification Low(1)/Medium(2)/High(3)” value (Renal RXF-393 CL9016) of the same molecule?
The value was 3.

What about the “sensitivity classification Low(1)/Medium(2)/High(3)” value (Renal SN12C CL9008) of the same molecule?
Its value is 2.

What about the “sensitivity classification Low(1)/Medium(2)/High(3)” value (Renal TK10 CL9024) of the same molecule?
The value was 1.

What about the “sensitivity classification Low(1)/Medium(2)/High(3)” value (Renal UO-31 CL9004) of the same molecule?
The value was 1.
